# Data from ChEMBL document CHEMBL1151567, “Synthesis and anti HIV-1 activity of new thiadiazepindioxides” (Bioorg Med Chem Lett, 1995).
# How the values were obtained:
# C8166 [1] = test: Cytotoxic activity was evaluated in CD4+ lymphoblastoid cell line; format: functional; settings: Homo sapiens
# C8166 [2] = test: Ratio of CC50 to that of IC50 was determined; format: functional
# C8166 [3] = test: Antiviral activity was evaluated by inhibition of HIV-1 replication in CD4+ lymphoblastoid cell line infected with HIV/IIIB strain; format: functional, cell-based; settings: Homo sapiens
IC50 (C8166 [3]) [µM],SMILES,CC50 (C8166 [1]) [µM],Selectivity index (C8166 [2])
0.28,CCN1C=CC=C2C1=Nc1cc(Cl)c(C)cc1S(=O)(=O)N2C,12,42
7,CN1c2cccnc2Nc2ncccc2S1(=O)=O,> 125,>17
0.032,Cc1cc2c(cc1C)N(C)S(=O)(=O)c1cccnc1N2C(C)C,> 60,>1875
> 300,CCN1c2ccccc2S(=O)(=O)N(C)c2cccnc21,,
0.004,Cc1cn([C@H]2C[C@H](N=[N+]=[N-])[C@@H](CO)O2)c(=O)[nH]c1=O [ZIDOVUDINE],1400,350000
0.33,CCN1C=CC=C2C1=Nc1cc(C)c(C)cc1N(C)S2(=O)=O,> 30,>90
> 300,Cc1cc2c(cc1Cl)Nc1ncccc1N(C)S2(=O)=O,,
3.7,CCN1C=CC=C2C1=Nc1ccccc1S(=O)(=O)N2C,80,22
0.04,CCN1c2cc(C)c(C)cc2N(C)S(=O)(=O)c2cccnc21,150,3750
48,CCN1c2cc(Cl)c(C)cc2S(=O)(=O)N(C)c2cccnc21,> 60,>1
0.0015,CC(C)=CCN1Cc2cc(Cl)cc3[nH]c(=S)n(c23)C[C@@H]1C,34,22600
0.6,Cc1cc2c(cc1C)N(C)S(=O)(=O)C1=CC=CN(C(C)C)C1=N2,> 30,>50
> 300,CN1c2cccnc2Nc2ccccc2S1(=O)=O,,
1,O=c1[nH]cnc2c1ncn2[C@H]1CC[C@@H](CO)O1 [DIDANOSINE],9000,9000
> 300,CCN1c2ncccc2N(C)S(=O)(=O)c2cccnc21,300,<1
4,Cc1cc2c(cc1C)N(C)S(=O)(=O)c1cccnc1N2,> 125,>31

SMILES,IC50 (C8166 [3]) [µM],CC50 (C8166 [1]) [µM],Selectivity index (C8166 [2])
Cc1ccnc2c1NC(=O)c1cccnc1N2C1CC1 [NEVIRAPINE],0.04,321,8025
